Test results taken from ChEMBL document CHEMBL3991601, “The target landscape of clinical kinase drugs” (Science, 2017).
pKd: −log10 of the molar value. Structures can show the parent of a compound that is named as a salt. The source made the active and inactive calls. Cut-off read from the data, not from the text of the source, for most assays here: actives have a measured Kd and inactives only a lower limit.

Experiments:
LIM domain kinase 1 = LIM domain kinase 1 (Homo sapiens, UniProt P53667)
[1] = molecular target: Calcium/calmodulin-dependent protein kinase kinase 2 (Homo sapiens, UniProt Q96RR4)
Calcium/calmodulin-dependent protein kinase kinase 2, sequence (Q96RR4 whole entry): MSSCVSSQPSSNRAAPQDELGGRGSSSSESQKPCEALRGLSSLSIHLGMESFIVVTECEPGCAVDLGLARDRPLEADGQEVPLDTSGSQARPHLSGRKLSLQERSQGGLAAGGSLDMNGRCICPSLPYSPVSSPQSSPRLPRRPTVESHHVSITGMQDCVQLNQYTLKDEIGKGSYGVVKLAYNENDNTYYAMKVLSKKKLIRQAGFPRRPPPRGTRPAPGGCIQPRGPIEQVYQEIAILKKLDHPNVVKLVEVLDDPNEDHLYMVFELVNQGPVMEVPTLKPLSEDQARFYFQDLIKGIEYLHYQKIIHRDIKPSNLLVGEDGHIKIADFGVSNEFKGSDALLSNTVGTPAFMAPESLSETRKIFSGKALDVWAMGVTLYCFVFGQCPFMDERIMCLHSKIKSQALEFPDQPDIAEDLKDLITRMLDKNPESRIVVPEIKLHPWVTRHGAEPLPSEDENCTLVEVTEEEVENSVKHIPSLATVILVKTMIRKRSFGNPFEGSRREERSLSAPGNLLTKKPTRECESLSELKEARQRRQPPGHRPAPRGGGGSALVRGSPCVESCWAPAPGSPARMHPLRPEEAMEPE

[2] = molecular target: Cyclin-dependent kinase 1 (Homo sapiens, UniProt P06493)
Cyclin-dependent kinase 1, sequence (P06493 whole entry): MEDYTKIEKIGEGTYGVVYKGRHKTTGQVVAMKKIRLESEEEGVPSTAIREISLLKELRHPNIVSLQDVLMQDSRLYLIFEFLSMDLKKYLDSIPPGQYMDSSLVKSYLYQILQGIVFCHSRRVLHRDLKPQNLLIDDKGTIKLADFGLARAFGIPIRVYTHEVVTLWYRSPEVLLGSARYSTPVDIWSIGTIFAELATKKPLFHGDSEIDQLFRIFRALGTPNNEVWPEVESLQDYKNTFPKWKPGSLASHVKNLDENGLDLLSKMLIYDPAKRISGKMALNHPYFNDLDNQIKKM

[3] = molecular target: Mitogen-activated protein kinase 1 (Homo sapiens, UniProt P28482)
Mitogen-activated protein kinase 1, sequence (P28482 whole entry, canonical isoform): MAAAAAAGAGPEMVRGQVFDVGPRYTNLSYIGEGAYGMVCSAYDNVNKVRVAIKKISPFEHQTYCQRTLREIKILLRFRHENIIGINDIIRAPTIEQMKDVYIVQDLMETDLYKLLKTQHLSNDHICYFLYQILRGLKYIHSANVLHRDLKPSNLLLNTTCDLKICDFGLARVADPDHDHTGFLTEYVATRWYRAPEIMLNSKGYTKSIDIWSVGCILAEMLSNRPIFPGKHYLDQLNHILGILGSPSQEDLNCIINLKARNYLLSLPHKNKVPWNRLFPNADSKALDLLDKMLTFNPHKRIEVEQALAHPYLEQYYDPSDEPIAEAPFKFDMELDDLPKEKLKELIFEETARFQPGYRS

[4] = molecular target: Casein kinase I isoform gamma-1 (Homo sapiens, UniProt Q9HCP0)
Casein kinase I isoform gamma-1, sequence (Q9HCP0 whole entry, canonical isoform): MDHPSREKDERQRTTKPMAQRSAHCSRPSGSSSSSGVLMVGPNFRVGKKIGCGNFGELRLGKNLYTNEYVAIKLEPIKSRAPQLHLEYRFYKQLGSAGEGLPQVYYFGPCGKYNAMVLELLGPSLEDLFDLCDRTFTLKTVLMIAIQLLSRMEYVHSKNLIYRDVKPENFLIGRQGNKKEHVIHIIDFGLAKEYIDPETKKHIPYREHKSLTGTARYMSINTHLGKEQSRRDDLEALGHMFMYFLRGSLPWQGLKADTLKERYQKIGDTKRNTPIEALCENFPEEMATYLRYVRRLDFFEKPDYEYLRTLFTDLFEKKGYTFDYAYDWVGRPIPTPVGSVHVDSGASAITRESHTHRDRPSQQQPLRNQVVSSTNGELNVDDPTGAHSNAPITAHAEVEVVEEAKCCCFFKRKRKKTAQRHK

[5] = molecular target: T1, Mitogen-activated protein kinase kinase kinase 6 (Homo sapiens, UniProt O95382)
T1 sequence (O95382 whole entry): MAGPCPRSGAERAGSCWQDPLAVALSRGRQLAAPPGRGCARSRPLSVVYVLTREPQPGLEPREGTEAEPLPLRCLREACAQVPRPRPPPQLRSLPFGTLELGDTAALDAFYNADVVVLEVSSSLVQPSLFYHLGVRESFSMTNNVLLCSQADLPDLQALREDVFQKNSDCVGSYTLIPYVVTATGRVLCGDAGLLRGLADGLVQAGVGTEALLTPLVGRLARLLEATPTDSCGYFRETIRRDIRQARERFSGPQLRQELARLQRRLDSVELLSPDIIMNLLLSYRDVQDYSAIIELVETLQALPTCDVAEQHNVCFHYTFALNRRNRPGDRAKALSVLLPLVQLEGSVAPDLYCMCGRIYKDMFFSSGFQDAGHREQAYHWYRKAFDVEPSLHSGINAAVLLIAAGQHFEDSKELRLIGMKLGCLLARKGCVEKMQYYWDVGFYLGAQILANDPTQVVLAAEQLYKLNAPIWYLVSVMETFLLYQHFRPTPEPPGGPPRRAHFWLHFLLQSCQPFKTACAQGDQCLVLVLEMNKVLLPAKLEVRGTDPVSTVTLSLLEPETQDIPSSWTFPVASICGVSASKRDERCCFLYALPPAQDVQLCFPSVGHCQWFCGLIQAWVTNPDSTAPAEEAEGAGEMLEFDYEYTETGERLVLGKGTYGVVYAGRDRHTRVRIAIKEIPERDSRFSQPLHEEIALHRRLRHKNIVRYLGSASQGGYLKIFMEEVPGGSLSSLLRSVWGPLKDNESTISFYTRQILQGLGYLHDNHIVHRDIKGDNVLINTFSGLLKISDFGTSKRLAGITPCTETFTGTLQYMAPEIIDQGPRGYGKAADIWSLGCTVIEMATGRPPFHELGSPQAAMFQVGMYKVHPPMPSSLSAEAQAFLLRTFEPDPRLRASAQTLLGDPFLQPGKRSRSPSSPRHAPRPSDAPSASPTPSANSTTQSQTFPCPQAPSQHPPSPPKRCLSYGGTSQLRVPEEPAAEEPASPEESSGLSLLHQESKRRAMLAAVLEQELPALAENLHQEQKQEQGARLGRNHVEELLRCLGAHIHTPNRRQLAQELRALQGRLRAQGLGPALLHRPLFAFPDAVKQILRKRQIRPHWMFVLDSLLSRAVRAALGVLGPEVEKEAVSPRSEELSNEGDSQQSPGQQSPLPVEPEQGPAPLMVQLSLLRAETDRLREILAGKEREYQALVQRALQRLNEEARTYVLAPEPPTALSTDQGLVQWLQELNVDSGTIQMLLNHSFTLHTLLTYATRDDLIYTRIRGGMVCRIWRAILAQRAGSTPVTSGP

[6] = molecular target: TRAF2 and NCK-interacting protein kinase (Homo sapiens, UniProt Q9UKE5)
TRAF2 and NCK-interacting protein kinase, sequence (Q9UKE5 whole entry): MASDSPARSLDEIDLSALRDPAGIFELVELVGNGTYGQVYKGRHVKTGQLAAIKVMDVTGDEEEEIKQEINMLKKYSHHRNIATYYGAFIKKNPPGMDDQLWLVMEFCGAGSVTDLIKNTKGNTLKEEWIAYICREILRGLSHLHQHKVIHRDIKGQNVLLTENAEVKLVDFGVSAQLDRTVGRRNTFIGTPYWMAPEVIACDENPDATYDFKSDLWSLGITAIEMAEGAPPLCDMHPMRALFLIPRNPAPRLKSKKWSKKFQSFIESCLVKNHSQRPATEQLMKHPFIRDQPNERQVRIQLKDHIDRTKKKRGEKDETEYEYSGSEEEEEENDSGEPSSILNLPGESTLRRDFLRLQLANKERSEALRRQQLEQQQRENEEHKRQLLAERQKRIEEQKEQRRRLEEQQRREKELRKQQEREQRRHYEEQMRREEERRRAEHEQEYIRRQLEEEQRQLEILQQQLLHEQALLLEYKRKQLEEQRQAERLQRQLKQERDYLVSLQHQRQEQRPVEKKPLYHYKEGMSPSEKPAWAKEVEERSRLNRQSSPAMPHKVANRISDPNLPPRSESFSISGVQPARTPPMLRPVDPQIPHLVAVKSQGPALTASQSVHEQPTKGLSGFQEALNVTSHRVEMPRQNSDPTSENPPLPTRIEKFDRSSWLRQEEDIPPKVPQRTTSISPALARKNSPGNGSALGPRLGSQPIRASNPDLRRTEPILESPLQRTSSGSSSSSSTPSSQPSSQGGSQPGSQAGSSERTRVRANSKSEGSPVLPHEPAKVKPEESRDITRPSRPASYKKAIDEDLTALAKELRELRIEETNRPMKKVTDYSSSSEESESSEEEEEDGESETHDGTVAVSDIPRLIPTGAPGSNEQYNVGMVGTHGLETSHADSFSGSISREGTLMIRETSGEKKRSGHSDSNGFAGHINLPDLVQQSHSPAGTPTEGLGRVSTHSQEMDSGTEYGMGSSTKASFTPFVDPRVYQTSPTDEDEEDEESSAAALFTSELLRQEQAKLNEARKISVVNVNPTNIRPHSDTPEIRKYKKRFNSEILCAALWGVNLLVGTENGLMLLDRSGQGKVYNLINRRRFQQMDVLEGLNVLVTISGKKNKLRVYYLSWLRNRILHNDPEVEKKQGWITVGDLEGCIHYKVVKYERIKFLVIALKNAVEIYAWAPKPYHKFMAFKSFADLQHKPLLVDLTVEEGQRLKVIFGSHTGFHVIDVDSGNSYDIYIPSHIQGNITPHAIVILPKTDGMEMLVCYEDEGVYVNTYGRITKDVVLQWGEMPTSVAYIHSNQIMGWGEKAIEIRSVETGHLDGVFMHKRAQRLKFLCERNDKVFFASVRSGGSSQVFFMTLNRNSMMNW

[7] = molecular target: Receptor-interacting serine/threonine-protein kinase 3 (Homo sapiens, UniProt Q9Y572)
Receptor-interacting serine/threonine-protein kinase 3, sequence (Q9Y572 whole entry): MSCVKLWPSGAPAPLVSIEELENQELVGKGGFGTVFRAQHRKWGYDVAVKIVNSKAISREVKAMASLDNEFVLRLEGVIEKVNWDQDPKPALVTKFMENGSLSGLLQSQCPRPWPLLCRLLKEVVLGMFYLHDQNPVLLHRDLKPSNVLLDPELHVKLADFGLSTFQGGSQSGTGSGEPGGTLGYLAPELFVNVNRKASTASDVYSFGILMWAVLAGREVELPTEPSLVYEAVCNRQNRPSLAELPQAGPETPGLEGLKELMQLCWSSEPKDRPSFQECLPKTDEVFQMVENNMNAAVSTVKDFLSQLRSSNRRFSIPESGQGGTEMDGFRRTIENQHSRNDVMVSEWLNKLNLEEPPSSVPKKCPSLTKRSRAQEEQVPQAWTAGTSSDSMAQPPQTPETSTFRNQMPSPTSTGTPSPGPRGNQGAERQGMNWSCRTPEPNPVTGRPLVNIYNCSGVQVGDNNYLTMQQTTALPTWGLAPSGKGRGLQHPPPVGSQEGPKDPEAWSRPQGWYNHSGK

Ephrin type-B receptor 2 = molecular target: T2, Ephrin type-B receptor 2 (Homo sapiens, UniProt P29323)
T2 sequence (P29323 whole entry): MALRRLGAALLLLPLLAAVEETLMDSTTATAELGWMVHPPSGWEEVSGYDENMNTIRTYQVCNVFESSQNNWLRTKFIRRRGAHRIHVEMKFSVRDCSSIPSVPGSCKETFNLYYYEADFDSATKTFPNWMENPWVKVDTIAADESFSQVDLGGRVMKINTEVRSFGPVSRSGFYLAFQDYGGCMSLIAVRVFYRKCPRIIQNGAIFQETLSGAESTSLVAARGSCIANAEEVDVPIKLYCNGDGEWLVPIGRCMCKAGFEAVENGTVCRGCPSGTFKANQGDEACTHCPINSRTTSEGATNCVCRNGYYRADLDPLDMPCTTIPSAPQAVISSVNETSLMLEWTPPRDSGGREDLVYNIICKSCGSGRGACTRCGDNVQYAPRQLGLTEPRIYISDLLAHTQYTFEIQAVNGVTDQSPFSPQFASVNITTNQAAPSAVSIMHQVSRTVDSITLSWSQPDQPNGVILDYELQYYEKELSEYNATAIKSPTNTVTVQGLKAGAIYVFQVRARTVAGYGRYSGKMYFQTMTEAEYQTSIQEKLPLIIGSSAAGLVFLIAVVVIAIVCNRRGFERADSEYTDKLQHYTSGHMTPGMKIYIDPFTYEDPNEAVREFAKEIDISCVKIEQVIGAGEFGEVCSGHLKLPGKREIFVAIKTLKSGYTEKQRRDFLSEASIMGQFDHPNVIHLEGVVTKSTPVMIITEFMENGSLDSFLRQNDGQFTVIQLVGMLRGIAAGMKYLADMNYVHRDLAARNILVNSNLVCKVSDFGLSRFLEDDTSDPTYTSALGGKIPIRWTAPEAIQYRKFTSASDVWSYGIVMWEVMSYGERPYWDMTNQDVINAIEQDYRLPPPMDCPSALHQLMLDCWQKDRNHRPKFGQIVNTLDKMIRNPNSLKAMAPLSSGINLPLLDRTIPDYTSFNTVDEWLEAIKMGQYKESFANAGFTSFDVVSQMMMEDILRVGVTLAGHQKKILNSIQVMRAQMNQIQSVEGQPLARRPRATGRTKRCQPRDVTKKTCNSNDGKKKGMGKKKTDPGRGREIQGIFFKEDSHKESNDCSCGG

[8] = molecular target: Serine/threonine-protein kinase 10 (Homo sapiens, UniProt O94804)
Note: in the data inactive means no Kd found up to 30 µM.

LIM domain kinase 1, sequence (P53667 whole entry, the tested form may be a part): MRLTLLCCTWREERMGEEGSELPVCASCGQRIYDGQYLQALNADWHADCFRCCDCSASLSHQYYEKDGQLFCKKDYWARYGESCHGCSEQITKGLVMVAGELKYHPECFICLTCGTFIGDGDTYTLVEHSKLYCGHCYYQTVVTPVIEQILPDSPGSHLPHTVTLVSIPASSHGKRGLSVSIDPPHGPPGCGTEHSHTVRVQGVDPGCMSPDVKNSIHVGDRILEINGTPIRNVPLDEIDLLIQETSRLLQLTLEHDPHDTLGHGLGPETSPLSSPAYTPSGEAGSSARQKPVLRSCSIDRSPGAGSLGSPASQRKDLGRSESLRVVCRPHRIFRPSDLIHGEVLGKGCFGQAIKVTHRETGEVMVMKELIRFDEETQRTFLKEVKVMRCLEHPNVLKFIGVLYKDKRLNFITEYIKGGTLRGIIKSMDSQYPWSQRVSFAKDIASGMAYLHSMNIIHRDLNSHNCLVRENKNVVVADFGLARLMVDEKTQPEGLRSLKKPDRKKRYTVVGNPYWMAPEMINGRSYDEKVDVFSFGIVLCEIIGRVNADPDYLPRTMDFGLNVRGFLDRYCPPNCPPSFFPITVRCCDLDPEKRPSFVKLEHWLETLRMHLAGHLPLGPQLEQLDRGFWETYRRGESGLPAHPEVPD

## C#Cc1cccc(Nc2ncnc3cc(OC)c(OCCCCCCC(=O)NO)cc23)c1 [CUDC-101]
LIM domain kinase 1
  Kd: > 30 µM (inactive)
[1]
  Kd: > 30 µM (inactive)
[2]
  Kd: > 30 µM (inactive)
[3]
  Kd: > 30 µM (inactive)
[4]
  Kd: > 30 µM (inactive)
[5]
  Kd: > 30 µM (inactive)
[6]
  Kd: > 30 µM (inactive)
[7]
  Kd: > 30 µM (inactive)
Ephrin type-B receptor 2
  Kd: > 30 µM (inactive)
[8]
  Kd: 57.5 µM (active)

## CCS(=O)(=O)N1CCN(c2ccc(Nc3ncc(C(N)=O)c(NC4CC4)n3)cc2)CC1 [Cerdulatinib Hydrochloride]
LIM domain kinase 1
  Kd: > 30 µM (inactive)
[1]
  Kd: > 30 µM (inactive)
[2]
  Kd: > 30 µM (inactive)
[3]
  Kd: > 30 µM (inactive)
[4]
  Kd: > 30 µM (inactive)
[5]
  Kd: 0.473 µM (active)
[6]
  Kd: > 30 µM (inactive)
[7]
  Kd: > 30 µM (inactive)
Ephrin type-B receptor 2
  Kd: > 30 µM (inactive)
[8]
  Kd: > 30 µM (inactive)

## Cc1nc2cc(-n3ncc(C(=O)c4cc5ccccc5[nH]4)c3N)ccc2[nH]1 [FGFR INHIBITOR DEBIO 1347]
LIM domain kinase 1
  Kd: > 30 µM (inactive)
[1]
  Kd: > 30 µM (inactive)
[2]
  Kd: > 30 µM (inactive)
[3]
  Kd: > 30 µM (inactive)
[4]
  Kd: > 30 µM (inactive)
[5]
  Kd: > 30 µM (inactive)
[6]
  Kd: > 30 µM (inactive)
[7]
  Kd: > 30 µM (inactive)
Ephrin type-B receptor 2
  Kd: > 30 µM (inactive)
[8]
  Kd: > 30 µM (inactive)

## O=C(Nc1nc2cccc(-c3ccc(CN4CCS(=O)(=O)CC4)cc3)n2n1)C1CC1 [FILGOTINIB]
LIM domain kinase 1
  Kd: > 30 µM (inactive)
[1]
  Kd: 3.63 µM (active)
[2]
  Kd: > 30 µM (inactive)
[3]
  Kd: > 30 µM (inactive)
[4]
  Kd: > 30 µM (inactive)
[5]
  Kd: > 30 µM (inactive)
[6]
  Kd: > 30 µM (inactive)
[7]
  Kd: > 30 µM (inactive)
Ephrin type-B receptor 2
  Kd: > 30 µM (inactive)
[8]
  Kd: 1.91 µM (active)

## Cc1cccc(-c2nn3c(c2-c2ccnc4ccc(C(N)=O)cc24)CCC3)n1 [GALUNISERTIB]
LIM domain kinase 1
  Kd: > 30 µM (inactive)
[1]
  Kd: > 30 µM (inactive)
[2]
  Kd: > 30 µM (inactive)
[3]
  Kd: > 30 µM (inactive)
[4]
  Kd: > 30 µM (inactive)
[5]
  Kd: > 30 µM (inactive)
[6]
  pKd: 5.92
[7]
  Kd: 0.011 µM (active)
Ephrin type-B receptor 2
  Kd: > 30 µM (inactive)
[8]
  Kd: > 30 µM (inactive)

## CCn1cc(-c2ccnc3[nH]c(-c4cccc(CN(C)C)c4)cc23)c(-c2ccc(NC(=O)N(C)C)cc2)n1 [GSK-1070916]
LIM domain kinase 1
  Kd: > 30 µM (inactive)
[1]
  Kd: > 30 µM (inactive)
[2]
  Kd: > 30 µM (inactive)
[3]
  Kd: > 30 µM (inactive)
[4]
  Kd: > 30 µM (inactive)
[5]
  Kd: > 30 µM (inactive)
[6]
  Kd: > 30 µM (inactive)
[7]
  Kd: > 30 µM (inactive)
Ephrin type-B receptor 2
  Kd: > 30 µM (inactive)
[8]
  Kd: > 30 µM (inactive)

## COc1ccc(S(=O)(=O)N(C(C)=O)c2ccccc2/C=C/c2cc[n+]([O-])cc2)cc1 [HMN-214]
LIM domain kinase 1
  Kd: > 30 µM (inactive)
[1]
  Kd: > 30 µM (inactive)
[2]
  Kd: > 30 µM (inactive)
[3]
  Kd: > 30 µM (inactive)
[4]
  Kd: > 30 µM (inactive)
[5]
  Kd: > 30 µM (inactive)
[6]
  Kd: > 30 µM (inactive)
[7]
  Kd: > 30 µM (inactive)
Ephrin type-B receptor 2
  Kd: > 30 µM (inactive)
[8]
  Kd: > 30 µM (inactive)

## CNC(=O)c1cccc2cc(Oc3ccnc4cc(OCC5(N)CC5)c(OC)cc34)ccc12 [LUCITANIB]
LIM domain kinase 1
  Kd: > 30 µM (inactive)
[1]
  Kd: > 30 µM (inactive)
[2]
  Kd: > 30 µM (inactive)
[3]
  Kd: > 30 µM (inactive)
[4]
  Kd: > 30 µM (inactive)
[5]
  Kd: > 30 µM (inactive)
[6]
  Kd: > 30 µM (inactive)
[7]
  Kd: > 30 µM (inactive)
Ephrin type-B receptor 2
  Kd: > 30 µM (inactive)
[8]
  Kd: > 30 µM (inactive)

## NC1(c2ccc(-c3nc4ccn5c(=O)[nH]nc5c4cc3-c3ccccc3)cc2)CCC1 [MK-2206]
LIM domain kinase 1
  Kd: > 30 µM (inactive)
[1]
  Kd: > 30 µM (inactive)
[2]
  Kd: > 30 µM (inactive)
[3]
  Kd: > 30 µM (inactive)
[4]
  Kd: > 30 µM (inactive)
[5]
  Kd: > 30 µM (inactive)
[6]
  Kd: > 30 µM (inactive)
[7]
  Kd: > 30 µM (inactive)
Ephrin type-B receptor 2
  Kd: > 30 µM (inactive)
[8]
  Kd: > 30 µM (inactive)

## CN(C[C@@H]1COCCO1)S(=O)(=O)Nc1ccc2ccc3ncc(-c4cnn(C)c4)cc3c(=O)c2c1 [MK-2461]
LIM domain kinase 1
  Kd: > 30 µM (inactive)
[1]
  Kd: > 30 µM (inactive)
[2]
  Kd: > 30 µM (inactive)
[3]
  Kd: > 30 µM (inactive)
[4]
  Kd: > 30 µM (inactive)
[5]
  Kd: > 30 µM (inactive)
[6]
  Kd: > 30 µM (inactive)
[7]
  Kd: > 30 µM (inactive)
Ephrin type-B receptor 2
  Kd: > 30 µM (inactive)
[8]
  Kd: > 30 µM (inactive)

## Cn1cc(-c2cnc3ccc4ccc(CS(=O)(=O)NCc5ccccn5)cc4c(=O)c3c2)cn1 [MK-8033]
LIM domain kinase 1
  Kd: > 30 µM (inactive)
[1]
  Kd: > 30 µM (inactive)
[2]
  Kd: > 30 µM (inactive)
[3]
  Kd: > 30 µM (inactive)
[4]
  Kd: > 30 µM (inactive)
[5]
  Kd: > 30 µM (inactive)
[6]
  Kd: > 30 µM (inactive)
[7]
  Kd: > 30 µM (inactive)
Ephrin type-B receptor 2
  Kd: > 30 µM (inactive)
[8]
  Kd: > 30 µM (inactive)

## FC(F)(F)c1ccc(/C=C/c2nc(COc3ccc(CCCCn4ccnn4)cc3)co2)cc1 [MUBRITINIB]
LIM domain kinase 1
  Kd: > 30 µM (inactive)
[1]
  Kd: > 30 µM (inactive)
[2]
  Kd: > 30 µM (inactive)
[3]
  Kd: > 30 µM (inactive)
[4]
  Kd: > 30 µM (inactive)
[5]
  Kd: > 30 µM (inactive)
[6]
  Kd: > 30 µM (inactive)
[7]
  Kd: > 30 µM (inactive)
Ephrin type-B receptor 2
  Kd: > 30 µM (inactive)
[8]
  Kd: > 30 µM (inactive)

## COc1ncc(-c2ccc3nccc(-c4ccnnc4)c3c2)cc1NS(=O)(=O)c1ccc(F)cc1F [OMIPALISIB]
LIM domain kinase 1
  Kd: > 30 µM (inactive)
[1]
  Kd: > 30 µM (inactive)
[2]
  Kd: > 30 µM (inactive)
[3]
  Kd: > 30 µM (inactive)
[4]
  Kd: > 30 µM (inactive)
[5]
  Kd: > 30 µM (inactive)
[6]
  Kd: > 30 µM (inactive)
[7]
  Kd: > 30 µM (inactive)
Ephrin type-B receptor 2
  Kd: > 30 µM (inactive)
[8]
  Kd: > 30 µM (inactive)

## CCCCCCCCCCCCCCCCCCOP(=O)([O-])OC1CC[N+](C)(C)CC1 [PERIFOSINE]
LIM domain kinase 1
  Kd: > 30 µM (inactive)
[1]
  Kd: > 30 µM (inactive)
[2]
  Kd: > 30 µM (inactive)
[3]
  Kd: > 30 µM (inactive)
[4]
  Kd: > 30 µM (inactive)
[5]
  Kd: > 30 µM (inactive)
[6]
  Kd: > 30 µM (inactive)
[7]
  Kd: > 30 µM (inactive)
Ephrin type-B receptor 2
  Kd: > 30 µM (inactive)
[8]
  Kd: > 30 µM (inactive)
